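Method: 48-hour compound exposure of cells in 96-well plates, five concentrations, linear interpolation of endpoints. At the TGI there is no net growth.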 Where a SMILES comes first, the peptide text is derived from it.

What all share (assay): NCI anticancer screen, dose series, 48 h
Assay [1] concerns NCI-H460 lung.
For assay [2], the system named is UACC-62 melanoma.
For assay [3], the system named is T-47D breast.
In assay [4] the test system is KM12 colon.
In assay [5] the test system is HOP-92 NSCLC.
Assay [6] relates to HCT-15 colon.
Assay [7] concerns NCI-H226 lung.
Assay [8] has as its system SK-MEL-28 melanoma.
Assay [9] relates to MCF7 breast.
For assay [10], the system named is SK-MEL-5 melanoma.
The test system of assay [11] is MOLT-4 leukemia.
The subject of assay [12] is UACC-257 melanoma.
For assay [13], the system named is OVCAR-4 ovarian.
Assay [14] relates to SK-MEL-2 melanoma.
Assay [15] relates to OVCAR-3 ovarian.
In assay [16] the test system is SN12C renal.
Assay [17] has as its system COLO 205 colon.
For assay [18], the system named is IGROV1 ovarian.
Assay [19] relates to UO-31 renal.
Assay [20] relates to A498 renal.

Regarding `O=C(NCCNCCNCCNC(=O)c1cc(-c2ccccc2)nc2ccccc12)c1cc(-c2ccccc2)nc2ccccc12`, the TGI in [1] stood at 3.4 µM; in [2], 3.97 µM; in [3] it was 7.66 µM; in assay [4], 5.54 µM; in assay [5] it was 7.81 µM; in assay [6], 18.9 µM. Besides, the TGI in assay [7] was found to be 7.38 µM; in assay [8], 3.08 µM; in assay [9] it was 3.79 µM; in assay [10], 2.88 µM; in assay [11], 4.22 µM; in assay [12], 3.17 µM. In addition, the TGI amounted to 13.8 µM in [13]; 3.08 µM in assay [14]; 8.11 µM in assay [15]; 11.2 µM in assay [16]; 4 µM in assay [17]; 7.52 µM in assay [18]. For the same molecule, the TGI in assay [19] is 18 µM; in [20], 9.68 µM.
In the case of `O=C1c2cscc2C(=O)C1(O)O`, the TGI was more than 100 µM in [1]; more than 100 µM in assay [2]; 37.5 µM in [3]; more than 100 µM in assay [4]; more than 100 µM in assay [5]; more than 100 µM in assay [6]. For the same molecule, the TGI is more than 100 µM in assay [7]; more than 100 µM in assay [8]; more than 100 µM in assay [9]; more than 100 µM in assay [10]; 57.8 µM in assay [11]; 65.1 µM in [12]. The TGI in assay [13] was more than 100 µM; in assay [14] it was more than 100 µM; in assay [15], 67.5 µM; in assay [16], 36.3 µM; in assay [17], 36.7 µM; in assay [18] it was more than 100 µM. For the same molecule, the TGI in assay [19] is 49.1 µM; in assay [20], more than 100 µM.
Regarding `COC(=O)[C@]12CCC(C)(C)C[C@H]1C1=CC[C@@H]3[C@@]4(C)CC[C@H](OC5OC(CO)C(O)C(O)C5OC5OC(CO)C(O)C(O)C5O)C(C)(C)[C@@H]4CC[C@@]3(C)[C@]1(C)CC2` (some centres undefined), the TGI in assay [1] was determined as 30.2 µM; in assay [2], 23.9 µM; in assay [3] it was 36.3 µM; in [4] it was 26.9 µM; in assay [5], 13 µM; in assay [6], 25 µM. The TGI is 14.5 µM in [7]; 12.3 µM in assay [8]; 24.4 µM in assay [9]; 29.3 µM in [10]; 40.8 µM in assay [11]; 20.3 µM in assay [12]. The TGI in assay [13] worked out at 15.6 µM; in assay [14], 23.9 µM; in assay [15] it was 22.4 µM; in assay [16], 15.9 µM; in assay [17] it was 10.4 µM; in [18], 28.7 µM. Also, the TGI in assay [19] was determined as 10.9 µM; in assay [20] it was 23.5 µM.
For the molecule `N#Cc1c(N)c2c(c(-c3ccccc3)c1-c1ccccc1)C(=O)N(NC(=O)c1ccccc1)C2=O`, the TGI in [1], in assay [2], in [3], in assay [4], in assay [5] and in assay [6] was more than 100 µM in each case. For the same molecule, the TGI in assay [7], in assay [8], in assay [9], in assay [10], in assay [11] and in [12] was more than 100 µM each time. Further, the TGI in assay [13], in assay [14], in [15], in assay [16], in assay [17] and in assay [18] was more than 100 µM throughout. In addition, the TGI in assay [19] and in [20] was more than 100 µM throughout.
Regarding `COC(=O)[C@@H]1C2OC(C)(C)OC2CN1C(=O)OCc1ccccc1` (some centres undefined), the TGI in assay [1], in assay [2], in [3], in assay [4], in assay [5] and in [6] was more than 100 µM throughout. The TGI in assay [7], in assay [8], in assay [9], in assay [10], in assay [11] and in assay [12] was more than 100 µM throughout. Also, the TGI in assay [13], in assay [14], in assay [15], in assay [16], in assay [17] and in assay [18] was more than 100 µM each time. Further, the TGI in assay [19] and in assay [20] was more than 100 µM throughout.
In the case of `O=C(Nc1sccc1S(=O)(=O)c1ccc(Cl)cc1)C(F)(F)F`, the TGI is more than 100 µM in assay [1]; more than 100 µM in [2]; more than 100 µM in [3]; 61.4 µM in assay [4]; more than 100 µM in assay [5]; more than 100 µM in assay [6]. Also, the TGI in [7] is more than 100 µM; in assay [8] it was more than 100 µM; in assay [9] it was more than 100 µM; in assay [10], 38.8 µM; in [11] it was 41.1 µM; in assay [12], more than 100 µM. Further, the TGI is more than 100 µM in assay [13]; 48.4 µM in assay [14]; more than 100 µM in [15]; 54.6 µM in [16]; 31.8 µM in assay [17]; more than 100 µM in assay [18]. In addition, the TGI in [19] and in [20] was more than 100 µM each time.
As to `CC(=O)NC(CS)C(=O)NC(CO)C(=O)NC(CO)C(=O)NC(Cc1c[nH]c2ccccc12)C(=O)N1CCCC1C(=O)NC(CO)C(=O)NC(Cc1c[nH]c2ccccc12)C(=O)NC(Cc1c[nH]cn1)C(=O)NC(CO)C(=O)NC(Cc1c[nH]c2ccccc12)C(=O)NCC(=O)NCC(=O)NC(CC(=O)O)C(=O)NC(CCC(N)=O)C(=O)NC(CCCCN)C(=O)NC(Cc1ccccc1)C(=O)NC(CCCNC(=N)N)C(=O)NC(CCCCN)C(N)=O` (centres undefined) (Ac-CSSWPSWHSWGGDQKFRK-NH2; configuration not given here), the TGI in assay [1], in [2], in assay [3], in assay [4], in assay [5] and in assay [6] was more than 25 µM in each case. Also, the TGI in assay [7], in assay [8], in [9], in assay [10], in assay [11] and in assay [12] was more than 25 µM each time. Besides, the TGI in [13], in assay [14], in [15], in assay [16], in assay [17] and in [18] was more than 25 µM each time. Besides, the TGI in assay [19] and in [20] was more than 25 µM in each case.
In the case of `COc1ccccc1N1C(=O)CS(=O)(=O)C1c1cccc(Oc2ccccc2)c1` (centres undefined), the TGI came to 29.4 µM in assay [1]; 25.3 µM in assay [2]; 48.3 µM in assay [3]; 61.7 µM in assay [4]; 24.7 µM in assay [5]; 36.2 µM in [6]. Moreover, the TGI in assay [7] is 31.8 µM; in [8], 36.7 µM; in [9], 20.4 µM; in [10], 28.9 µM; in assay [11] it was 38.8 µM; in [12] it was 25.6 µM. The TGI in assay [13] stood at 38.6 µM; in assay [14], 27.1 µM; in [15] it was 41.2 µM; in [16], 33.1 µM; in assay [17], 34.4 µM; in [19] it was 35.1 µM. In [20], this molecule gave a TGI of 34.6 µM.
As for `COc1cc2c(cc1OC)C1CCc3ccccc3CN1CC2` (centres undefined), the TGI in assay [1], in assay [2], in [3], in [4], in assay [5] and in [6] was more than 100 µM in each case. Besides, the TGI in [7], in assay [8], in assay [9], in assay [10], in assay [11] and in assay [12] was more than 100 µM throughout. Besides, the TGI in assay [13], in [14], in assay [15], in assay [16], in assay [17] and in [18] was more than 100 µM in each case. The molecule also had a TGI in assay [20] of more than 100 µM.
`CN(C)/C=C(\C(=O)c1ccccc1)n1nc(-c2ccccc2)cc1-c1ccccc1`: the TGI in [1], in assay [2], in assay [3], in assay [4], in [5] and in assay [6] was more than 10 µM in each case. Also, the TGI in assay [7], in assay [8], in assay [9], in assay [10], in assay [11] and in assay [12] was more than 10 µM in each case. The TGI in assay [13], in assay [14], in assay [15], in assay [16], in assay [17] and in assay [18] was more than 10 µM each time. Moreover, the TGI in assay [20] was more than 10 µM.
Turning to `CCN(CC)CCn1c2cc3c(cc2c(=O)c2cccnc21)OCO3`, the TGI in [1] is 7.79 µM; in assay [2], more than 10 µM; in assay [3] it was more than 10 µM; in assay [4] it was more than 10 µM; in [5] it was more than 10 µM; in assay [6], more than 10 µM. For the same molecule, the TGI in [7], in assay [8], in assay [9], in assay [10], in assay [11] and in assay [12] was more than 10 µM each time. For the same molecule, the TGI in assay [13], in [14], in assay [15], in [16], in assay [17] and in assay [18] was more than 10 µM in each case. This molecule also yielded a TGI in assay [20] of more than 10 µM.
Take `Nc1ccc2cc3[nH]c4cc(N)ccc4c3nc2c1`: the TGI in assay [1] came out at 0.548 µM; in [2], 0.708 µM; in assay [3], 4.33 µM; in [4] it was 1.7 µM; in assay [5], 0.737 µM; in assay [6], 1.47 µM. In addition, the TGI in [7] was found to be 1.8 µM; in [8], 0.317 µM; in assay [9] it was 1.7 µM; in assay [10], 0.923 µM; in assay [11] it was 6.76 µM; in assay [12] it was 0.761 µM. Besides, the TGI in assay [13] was 3.02 µM; in [14] it was 1.47 µM; in assay [15], 2.69 µM; in assay [16] it was 1.17 µM; in assay [17] it was 1.27 µM; in [19], 0.659 µM. Further, the TGI in assay [20] was 1.24 µM.
As for `CCN(CC)CCOC(=O)CCN1CC2CCC(CC2)C1`, the TGI in [1], in assay [2], in assay [3], in assay [4], in assay [5] and in assay [6] was more than 100 µM in each case. The TGI in [7], in assay [8], in assay [9], in assay [10], in assay [11] and in assay [12] was more than 100 µM in each case. Also, the TGI in [13], in [14], in [15], in assay [17], in [18] and in assay [19] was more than 100 µM in each case. Moreover, the TGI in assay [20] is more than 100 µM.

These data come from PubChem BioAssay (NCI).
